Experimental data taken from patent US20240316093A1, “NEPHROTOXICITY REDUCING AGENT” (NIPPON SHINYAKU CO., LTD., priority 2021, published 2024).

Experiments:
[1] = tested on: kidney of C57BL/6J male mice; details: mouse, in vivo
Experimental: The obtained dosing solutions were administered into the tail vein of 6-week-old C57BL/6J male mice (N=5) at 20 mL/kg. Next day, the mice were subjected to autopsy, and formalin-fixed paraffin-embedded samples of the respective kidneys were prepared. Sections obtained by slicing the samples were subjected to hematoxylin-eosin staining and a histopathological test of the sections was performed.

[2] = tested on: kidney of C57BL/6J male mice; assay: Histopathological test of kidney (hematoxylin-eosin) after PMO No. 8 with or without sucrose (Example 2); details: Example 2, histopathological test, PMO No. 8 with sucrose
Experimental: (§1) The obtained dosing solutions were administered into the tail vein of 6-week-old C57BL/6J male mice (N=3) at 10 and 12 mL/kg. Next day, serum was collected from the mice, and the blood urea nitrogen (BUN) values and blood creatinine (Cre) values were measured with the urease-GIDH method and the enzymatic method, respectively, using an automatic biochemical analyzer JCA-BM8060 (manufactured by JEOL Ltd.). […] Sections obtained by slicing the samples were subjected to hematoxylin-eosin staining and a histopathological test of the sections was performed.

C57BL/6J male mice [3] = assay: BUN and Cre values in serum after tail-vein administration of PMO dosing solutions with or without sucrose (Example 2); details: Example 2, PMO Nos. 8 and 9 with sucrose
Experimental: as §1

C57BL/6J male mice [4] = assay: BUN and Cre values in serum after tail-vein administration of PMO dosing solutions with or without sucrose or trehalose (Example 5); details: Example 5, PMO Nos. 1, 8 and 9 with sucrose or trehalose
Experimental: Also, the antisense oligomers of PMO Nos. 1, 8, and 9 were each dissolved in water for injection comprising 0.9% sodium chloride, and a solution obtained by dissolving trehalose (manufactured by FUJIFILM Wako Pure Chemical Corporation) with physiological saline was added thereto to prepare a dosing solution comprising each of the antisense oligomers and trehalose at the concentrations shown in Tables 15 to 17.
The obtained dosing solutions were administered into the tail vein of 6-week-old C57BL/6J male mice (N=2 to 3) at 20 mL/kg. Next day, serum was collected from the mice, and the blood urea nitrogen (BUN) values and blood creatinine (Cre) values were measured with the urease-GIDH method and the enzymatic method, respectively, using an automatic biochemical analyzer JCA-BM8060 (manufactured by JEOL Ltd.).

[5] = Precipitation suppressing effect of trehalose, absorbance at 620 nm in the presence of ions assumed to be in urine (Example 7); type: physicochemical; details: Example 7, PMO Nos. 1, 2, 7, 8; aqueous solution of trehalose versus water for injection; KCl and NaCl, 37° C.
Experimental: Each of the antisense oligomers was dissolved in water for injection or an aqueous solution of trehalose, and the mixture was then mixed with an aqueous solution comprising potassium chloride and sodium chloride assumed to be in urine. The absorbance at 620 nm of the solution thus mixed was measured using a plate reader, Infinite F200 Pro (manufactured by Tecan Group Ltd.) under the heating condition of 37° C. […] Accordingly, conditions were set under which the precipitation was observed using water for injection as a medium for each sequence. Another measurement was performed under the same conditions as obtained except that only the medium was changed to an aqueous solution of trehalose, and then the absorbance obtained under both the conditions was compared to each other. When the absorbance was increased, precipitation was determined to be observed, and a time until the precipitation was observed and the increased value of the absorbance were evaluated. When the aqueous solution of trehalose was used as the medium, it was determined that the precipitation suppressing effect was presented in a case where the time until the precipitation was observed was longer or in a case where the increased value of the absorbance was smaller than the case of using the water for injection as the medium.

Row | Structure (SMILES) | Nephrotoxicity reducing effect (toxicological findings on the histopathological test of the kidney) [1] | Amount of precipitates (basophilic substances in the lumens of renal tubules) [2] | Nephrotoxicity reducing effect (BUN values and Cre values versus control dosing solution comprising no sucrose) (C57BL/6J male mice [3]) | Nephrotoxicity reducing effect (BUN values and Cre values versus dosing solution comprising neither sucrose nor trehalose) (C57BL/6J male mice [4]) | Precipitation suppressing effect (time until the precipitation was observed, increase of the absorbance at 620 nm) [5]
1 | OC[C@H]1O[C@@](CO)(O[C@H]2O[C@H](CO)[C@@H](O)[C@H](O)[C@H]2O)[C@@H](O)[C@@H]1O [sucrose] | confirmed to reduce nephrotoxicity | amount of precipitates decreased according to the concentrations of sucrose | confirmed to reduce nephrotoxicity | confirmed to reduce nephrotoxicity | 
2 | OC[C@H]1O[C@H](O[C@H]2O[C@H](CO)[C@@H](O)[C@H](O)[C@H]2O)[C@H](O)[C@@H](O)[C@@H]1O [trehalose] |  |  |  | confirmed to reduce nephrotoxicity | suppress the precipitation of antisense oligomers
